Key:
Format in all cases: biochemical
[1] = target: T1, human 20S proteasome subunit β1 (Homo sapiens, UniProt P28072); assay: cryo-EM structure at […] Å; IC50 with Z-LLE-amc
T1 construct: gene PSMB6; human constitutive 20S proteasome (h20S), whole complex; catalytic N-terminal Thr1; with other subunits of the 20S proteasome (α1–α7, β1–β7)

[2] = test system: T2, Trichomonas vaginalis 20S proteasome (Tv20S) subunit β1; assay: IC50 for the individual proteolytic subunit (Figure S5)
T2 construct: Tv20S, whole complex; with other subunits of the Tv20S proteasome

[3] = test system: T3, Trichomonas vaginalis 20S proteasome (Tv20S) subunit β5; assay: as above
T3 construct: Tv20S, whole complex; with other subunits of the Tv20S proteasome

[4] = target: T4, human 20S proteasome subunit β2 (Homo sapiens, UniProt Q99436); assay: cryo-EM structure at […] Å; IC50 with Z-VLR-amc
T4 construct: gene PSMB7; human constitutive 20S proteasome (h20S), whole complex; catalytic N-terminal Thr1; with other subunits of the 20S proteasome (α1–α7, β1–β7)

[5] = target: T5, human 20S proteasome subunit β5 (Homo sapiens, UniProt P28074); assay: cryo-EM structure at […] Å; IC50 with Suc-LLVY-amc
T5 construct: gene PSMB5; human constitutive 20S proteasome (h20S), whole complex; catalytic N-terminal Thr1; with other subunits of the 20S proteasome (α1–α7, β1–β7)
T5 sequence (Q06323 whole entry): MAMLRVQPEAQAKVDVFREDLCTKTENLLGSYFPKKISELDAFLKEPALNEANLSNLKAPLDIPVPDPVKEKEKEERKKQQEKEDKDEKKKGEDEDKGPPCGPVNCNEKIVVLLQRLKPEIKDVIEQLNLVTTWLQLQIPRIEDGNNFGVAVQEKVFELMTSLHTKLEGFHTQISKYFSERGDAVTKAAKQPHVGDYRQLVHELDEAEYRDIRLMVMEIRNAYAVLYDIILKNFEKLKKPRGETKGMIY
T5 sequence (P28074 60-263): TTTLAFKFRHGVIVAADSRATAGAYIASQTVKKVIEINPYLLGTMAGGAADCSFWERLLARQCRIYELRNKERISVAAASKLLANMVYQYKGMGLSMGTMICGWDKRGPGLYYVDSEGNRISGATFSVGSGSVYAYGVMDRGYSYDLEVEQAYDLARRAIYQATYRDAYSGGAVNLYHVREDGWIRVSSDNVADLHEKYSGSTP

T1 sequence (Q06323 whole entry): as the sequence (Q06323 whole entry) above
T1 sequence (P28072 35-239): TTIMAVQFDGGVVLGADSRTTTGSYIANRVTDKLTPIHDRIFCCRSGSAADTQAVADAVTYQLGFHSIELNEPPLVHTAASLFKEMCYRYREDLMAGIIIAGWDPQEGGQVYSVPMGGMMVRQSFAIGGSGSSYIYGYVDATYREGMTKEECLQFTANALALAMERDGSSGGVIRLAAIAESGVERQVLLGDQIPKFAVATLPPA
T4 sequence (Q06323 whole entry): as the sequence (Q06323 whole entry) above
T4 sequence (Q99436 44-277): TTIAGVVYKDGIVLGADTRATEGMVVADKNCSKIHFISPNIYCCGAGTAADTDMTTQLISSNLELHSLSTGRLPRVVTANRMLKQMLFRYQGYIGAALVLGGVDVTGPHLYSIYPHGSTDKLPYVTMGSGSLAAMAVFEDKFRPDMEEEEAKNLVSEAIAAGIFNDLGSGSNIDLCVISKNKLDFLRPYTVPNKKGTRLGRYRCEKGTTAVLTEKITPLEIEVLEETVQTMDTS

C[C@@]12OC(=O)[C@]1([C@@H](O)[C@@H]1C=CCCC1)NC(=O)[C@@H]2CCCl [MZB, Marizomib]
IC50 [1]: 597 nM
IC50 [2]: 244 ± 72.2 nM
IC50 [3]: 3.9 ± 0.2 nM
IC50 [4]: 326 nM
IC50 [5]: 18.5 nM

Source: article PMC11946101, “Structural Insights into Salinosporamide a Mediated Inhibition of the Human 20S Proteasome” (Molecules, 2025)
